Patent publication US7691965B2, “Helical synthetic peptides that stimulate cellular cholesterol efflux” (The Regents of the University of California, priority 2002, dated 2010)
Where a SMILES comes first, the peptide text is derived from it.

Legend:
ABCA1 [1] = target: T1, ABCA1 (Mus musculus, UniProt P41233); assay: ABCA1 stabilization: immunoblot of ABCA1 protein in J774 macrophage membranes after cAMP withdrawal; type: cell-based; design: J774 macrophages were used to assess relative ABCA1 protein levels in the presence and absence of synthetic peptides; endogenous in cells; host or cells: J774 macrophages treated with a cAMP analog (CPT-cAMP or 8-bromo-cAMP); conditions: 20 μg/ml peptide, 6 h without cAMP, J774 macrophages
T1 sequence (P41233 whole entry): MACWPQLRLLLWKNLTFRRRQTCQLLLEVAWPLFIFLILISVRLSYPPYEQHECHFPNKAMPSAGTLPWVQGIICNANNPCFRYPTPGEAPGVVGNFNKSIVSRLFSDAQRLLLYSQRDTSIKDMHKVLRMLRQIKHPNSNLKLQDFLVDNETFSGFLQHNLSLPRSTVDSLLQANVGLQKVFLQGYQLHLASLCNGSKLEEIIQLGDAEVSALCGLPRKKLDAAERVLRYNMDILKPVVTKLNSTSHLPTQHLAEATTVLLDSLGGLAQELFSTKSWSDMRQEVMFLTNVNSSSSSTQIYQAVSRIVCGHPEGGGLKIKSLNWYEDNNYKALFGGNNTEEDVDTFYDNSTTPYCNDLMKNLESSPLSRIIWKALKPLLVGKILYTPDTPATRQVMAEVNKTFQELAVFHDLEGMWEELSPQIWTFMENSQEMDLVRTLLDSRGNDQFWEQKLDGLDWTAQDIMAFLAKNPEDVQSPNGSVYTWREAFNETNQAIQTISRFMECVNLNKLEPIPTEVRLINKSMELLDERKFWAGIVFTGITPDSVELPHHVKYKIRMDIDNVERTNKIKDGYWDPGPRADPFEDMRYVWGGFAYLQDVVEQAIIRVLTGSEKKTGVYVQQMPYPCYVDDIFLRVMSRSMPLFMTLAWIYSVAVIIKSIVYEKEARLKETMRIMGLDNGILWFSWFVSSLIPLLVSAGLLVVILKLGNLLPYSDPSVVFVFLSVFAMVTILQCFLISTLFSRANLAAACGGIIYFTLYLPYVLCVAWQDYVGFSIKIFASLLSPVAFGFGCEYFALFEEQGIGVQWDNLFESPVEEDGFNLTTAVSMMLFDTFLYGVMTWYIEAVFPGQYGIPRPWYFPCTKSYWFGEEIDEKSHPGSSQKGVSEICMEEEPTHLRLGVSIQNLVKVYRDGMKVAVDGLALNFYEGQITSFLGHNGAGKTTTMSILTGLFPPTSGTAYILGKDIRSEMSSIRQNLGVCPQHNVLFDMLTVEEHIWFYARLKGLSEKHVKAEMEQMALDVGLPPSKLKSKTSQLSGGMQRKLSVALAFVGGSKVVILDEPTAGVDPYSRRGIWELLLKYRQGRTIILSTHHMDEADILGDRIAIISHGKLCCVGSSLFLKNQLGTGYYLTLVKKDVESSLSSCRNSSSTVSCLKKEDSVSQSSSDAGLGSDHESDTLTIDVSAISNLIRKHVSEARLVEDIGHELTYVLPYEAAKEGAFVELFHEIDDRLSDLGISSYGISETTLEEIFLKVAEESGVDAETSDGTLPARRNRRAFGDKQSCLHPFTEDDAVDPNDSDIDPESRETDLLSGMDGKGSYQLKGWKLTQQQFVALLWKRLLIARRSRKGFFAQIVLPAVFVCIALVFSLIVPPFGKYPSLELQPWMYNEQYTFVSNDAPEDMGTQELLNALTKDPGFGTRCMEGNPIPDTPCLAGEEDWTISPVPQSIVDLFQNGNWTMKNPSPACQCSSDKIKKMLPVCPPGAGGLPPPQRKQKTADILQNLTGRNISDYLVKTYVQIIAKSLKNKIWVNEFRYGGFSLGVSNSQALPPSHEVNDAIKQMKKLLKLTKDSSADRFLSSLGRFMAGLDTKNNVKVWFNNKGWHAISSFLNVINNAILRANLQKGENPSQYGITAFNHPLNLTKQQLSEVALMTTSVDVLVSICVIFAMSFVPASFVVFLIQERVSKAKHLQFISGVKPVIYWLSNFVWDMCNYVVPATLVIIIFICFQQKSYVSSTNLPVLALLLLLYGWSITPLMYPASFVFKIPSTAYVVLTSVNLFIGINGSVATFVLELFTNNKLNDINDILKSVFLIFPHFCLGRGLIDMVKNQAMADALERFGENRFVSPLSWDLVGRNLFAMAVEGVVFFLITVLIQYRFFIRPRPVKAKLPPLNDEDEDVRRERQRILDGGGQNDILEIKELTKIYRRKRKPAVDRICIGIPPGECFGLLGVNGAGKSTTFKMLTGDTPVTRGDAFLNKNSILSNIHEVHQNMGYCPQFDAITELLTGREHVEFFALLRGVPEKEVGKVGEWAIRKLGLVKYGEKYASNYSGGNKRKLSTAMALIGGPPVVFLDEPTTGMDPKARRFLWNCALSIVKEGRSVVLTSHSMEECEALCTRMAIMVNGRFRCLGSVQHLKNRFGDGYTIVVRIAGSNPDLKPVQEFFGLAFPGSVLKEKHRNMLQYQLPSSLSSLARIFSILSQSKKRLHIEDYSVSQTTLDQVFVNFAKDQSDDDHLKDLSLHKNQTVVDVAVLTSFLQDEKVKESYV
Procedure: J774 macrophages were incubated (18 h) with 0.5 mM 8-bromo-cAMP in medium containing 0.1% bovine serum albumin to up-regulate ABCA1 protein expression. Washed cells were subsequently exposed for 6 h to bovine serum albumin medium with (+) or without (−) 8-bromo-cAMP and the indicated synthetic peptides (20 μg/ml). None refers to no peptides. The cellular membrane content of ABCA1 protein was measured by immunoblot analysis.
ABCA1 Stabilization—J774 macrophages were used to assess relative ABCA1 protein levels in the presence and absence of synthetic peptides. Cells were grown in 10% fetal bovine serum, extensively rinsed, and incubated (18 h) with Dulbecco's modified Eagle's medium containing 0.1% bovine serum albumin plus the cAMP analog 8-bromo-cAMP. Cells were next exposed to synthetic peptides or serum-free medium in the absence of the cAMP stimulus to evaluate whether ABCA1 protein was stabilized or degraded. Relative levels of ABCA1 protein were assessed by immunoblot analysis of cell membranes (Oram, J. F. et al., J. Biol. Chem., 278:52379-52385 (2003)). ABCA1 was visualized using an enhanced chemiluminescence detection assay.
To assess ABCA1 stabilization, J774 macrophages were treated with a cAMP analog to up-regulate ABCA1 protein expression and then incubated for 6 h without cAMP. In the absence of inducer, ABCA1 protein is rapidly degraded in these cells (FIG. 9). […] Thus, it appears that the helical combinations that stimulate cholesterol efflux also stabilize the ABCA1 transporter.

ABCA1 [2] = target: T1, ABCA1; assay: Cellular cholesterol efflux from [3H]cholesterol-labeled J774 macrophages with and without cAMP analog; type: cell-based; design: endogenous in cells; host or cells: J774 macrophages treated with a cAMP analog (CPT-cAMP or 8-bromo-cAMP); conditions: for concentration at which cholesterol efflux reached maximal levels: cAMP-treated J774 cells; for ABCA1-dependent cholesterol efflux (result in words): lipid-free acceptor, J774 macrophages with vs without cAMP analog
Text: Suitable cholesterol efflux assays are described in, e.g., Bielicki, J. K and Oda, M. N., Biochemistry, 41:2089-2096 (2002); Jia, Z. et al., Biochem. Biophys. Res. Common., 297:206-213 (2002). In some embodiments, a polypeptide known to mediate cholesterol efflux (e.g., helix 9/10 of Apo A-I) is used to screen for additional mediators of cholesterol efflux in a cell based assay. For example, cell lines in which cholesterol efflux can be enhanced using a cAMP analog that up-regulates ABCA1 protein expression (e.g., J774 macrophages) can conveniently be used to assess the ability of an Apo A-I, Apo A-II, Apo A-IV, Apo E, Apo C-I, Apo C-II, Apo C-III, or Serum Amyloid A peptide to mediate cholesterol efflux. The cells are incubated with labeled cholesterol (e.g., [^3H]cholesterol) under conditions appropriate for cholesterol uptake by the cells. cAMP or cAMP analogs (e.g., CPT-cAMP) is incubated with the cells for a suitable time before the initiation of cellular cholesterol efflux, i.e., prior to contacting the cells with helix 9/10 of Apo A-I or the test compound. Measurement of labeled cholesterol appearing in the medium is used to determine the cholesterol efflux mediating activity of the test compound.
Cellular Cholesterol Efflux Protocol—J774 macrophages were used to assess the cholesterol efflux properties of synthetic amphipathic α-helical peptides (Bielicki, J. K and Oda, M. N., Biochemistry, 41:2089-2096 (2002); Jia, Z. et al., Biochem. Biophys. Res. Common., 297:206-213 (2002)). This cell line was chosen because cholesterol efflux can be enhanced using a cAMP analog that up-regulates ABCA1 protein expression. The cells were seeded onto 24-well culture plates and labeled for 48 h with [^3H]cholesterol in RPMI 1640 supplemented with 1% fetal bovine serum. The cAMP analog CPT-cAMP was added (0.3 mM, final concentration) to the cells at least 12 h before the initiation of cellular cholesterol efflux. Synthetic peptides in lipid-free form were added to cells in serum-free RPMI. The lipid-free form of full-length recombinant apoA-I was used as a positive control to define apparent ABCA1-dependent cholesterol efflux in the presence and absence of cAMP stimulation. Efflux results were expressed as a percentage of the initial cellular [^3H] appearing in the medium as a function of time subtracting the background efflux obtained using serum-free medium alone.

ABCA1 [3] = target: T1, ABCA1; assay: ABCA1 stabilization: immunoblot of ABCA1 protein in J774 macrophage membranes after cAMP withdrawal; type: cell-based; design: J774 macrophages were used to assess relative ABCA1 protein levels in the presence and absence of synthetic peptides; endogenous in cells; host or cells: J774 macrophages treated with a cAMP analog (CPT-cAMP or 8-bromo-cAMP); conditions: concentration dependence studies, J774 macrophages
[4] = DMPC clearance assay (solubilization of a turbid phospholipid solution); type: physicochemical
Text: Relative Lipid Binding Affinity, Hydrophobicity, and Amphiphilicity of Synthetic Peptides-In some experiments, the relative lipid binding affinity of unique peptides was quantified using a surface balance technique (Gillotte, K L. et al., J. Biol. Chem., 274:2021-2028 (1999)). For routine analyses, a turbid solution of dimyristoylphosphatidylcholine (DMPC) was used to assess the relative capacity of synthetic peptides to solubilize phospholipid as described (Palgunachari, M. N. et al., Arterioscler. Thromb. Vasc. Biol., 16:328-338 (1996); McLean, L. R. and […]., Biochim. Biophys. Acta, 1167:289-295 (1993)). The DMPC was used at a final concentration of 0.08 mg/ml in 10 mM Tris-saline (pH 7.4). The final weight ratio of peptides relative to DMPC was 1:1. The absorbance (400 nm) of samples was monitored continuously over a period of 30 min at 25° C. Hydrophobicity of helical peptides was calculated using the consensus scale (Eisenberg D., Annu. Rev. Biochem., 53:593-623 (1984)). The hydrophobic moment (kcal/mol) of synthetic peptides, which is a measure of helix amphiphilicity, was calculated as described by Eisenberg et al. (Eisenberg, D. et al., Nature, 299:371-374 (1982)).

[5] = Relative lipid binding affinity by surface balance technique (monolayer exclusion pressure); type: physicochemical; conditions: for Monolayer exclusion pressure: surface balance technique
Text: Relative Lipid Binding Affinity, Hydrophobicity, and Amphiphilicity of Synthetic Peptides—In some experiments, the relative lipid binding affinity of unique peptides was quantified using a surface balance technique (Gillotte, K L. et al., J. Biol. Chem., 274:2021-2028 (1999)). For routine analyses, a turbid solution of dimyristoylphosphatidylcholine (DMPC) was used to assess the relative capacity of synthetic peptides to solubilize phospholipid as described (Palgunachari, M. N. et al., Arterioscler. Thromb. Vasc. Biol., 16:328-338 (1996); McLean, L. R. and Hagaman, K. A., Biochim. Biophys. Acta, 1167:289-295 (1993)). The DMPC was used at a final concentration of 0.08 mg/ml in 10 mM Tris-saline (pH 7.4). The final weight ratio of peptides relative to DMPC was 1:1. The absorbance (400 nm) of samples was monitored continuously over a period of 30 min at 25° C. Hydrophobicity of helical peptides was calculated using the consensus scale (Eisenberg D., Annu. Rev. Biochem., 53:593-623 (1984)). The hydrophobic moment (kcal/mol) of synthetic peptides, which is a measure of helix amphiphilicity, was calculated as described by Eisenberg et al. (Eisenberg, D. et al., Nature, 299:371-374 (1982)).

SMILES	ABCA1 stabilization (result in words) (ABCA1 [1])	potency in mediating ABCA1-dependent cholesterol efflux relative to the 1/9 chimera (ABCA1 [2]; FIGS. 2B versus 3C) [fold]	concentration giving maximal ABCA1 stabilization and cholesterol efflux (ABCA1 [2]; both ABCA1 stabilization and cholesterol efflux) [µg/mL]	concentration at which cholesterol efflux reached maximal levels (ABCA1 [2]) [µg/mL]	ABCA1-dependent cholesterol efflux (result in words) (ABCA1 [2])	lowest concentration that prevented ABCA1 degradation (ABCA1 [3]) [µg/mL]	DMPC clearance [4]	Monolayer exclusion pressure [5] [dynes/cm]	lipid binding affinity (surface balance technique), result in words [5]
CC(=O)N1CCC[C@H]1C(=O)N[C@@H](C)C(=O)N[C@@H](CC(C)C)C(=O)N[C@@H](CCC(=O)O)C(=O)N[C@@H](CC(=O)O)C(=O)N[C@@H](CC(C)C)C(=O)N[C@@H](CCCNC(=N)N)C(=O)N[C@@H](CCC(N)=O)C(=O)NCC(=O)N[C@@H](CC(C)C)C(=O)N[C@@H](CC(C)C)C(=O)N1CCC[C@H]1C(=O)N[C@H](C(=O)N[C@@H](CC(C)C)C(=O)N[C@@H](CCC(=O)O)C(=O)N[C@@H](CO)C(=O)N[C@@H](Cc1ccccc1)C(=O)N[C@@H](CCCCN)C(=O)N[C@H](C(=O)N[C@@H](CO)C(=O)N[C@@H](Cc1ccccc1)C(=O)N[C@@H](CC(C)C)C(=O)N[C@@H](CO)C(=O)N[C@@H](C)C(=O)N[C@@H](CC(C)C)C(=O)N[C@@H](CCC(=O)O)C(=O)N[C@@H](CCC(=O)O)C(=O)N[C@@H](Cc1ccc(O)cc1)C(=O)N[C@H](C(=O)N[C@@H](CCCCN)C(=O)N[C@@H](CCCCN)C(=O)N[C@@H](CC(C)C)C(=O)N[C@@H](CC(N)=O)C(N)=O)[C@@H](C)O)C(C)C)C(C)C [Helical peptide 9/10] (Ac-PALEDLRQGLLPVLESFKVSFLSALEEYTKKLN-NH2)	stabilized cellular ABCA1 protein to levels comparable with those observed when cells were exposed continuously to cAMP	2	10 to 25	25	stimulated cholesterol efflux in an ABCA1-dependent manner	10	+	36	
CC(=O)N[C@@H](CC(C)C)C(=O)N[C@@H](CCCCN)C(=O)N[C@@H](CC(C)C)C(=O)N[C@@H](CC(C)C)C(=O)N[C@@H](CC(=O)O)C(=O)N[C@@H](CC(N)=O)C(=O)N[C@@H](Cc1c[nH]c2ccccc12)C(=O)N[C@@H](CC(=O)O)C(=O)N[C@@H](CO)C(=O)N[C@H](C(=O)N[C@H](C(=O)N[C@@H](CO)C(=O)N[C@H](C(=O)N[C@@H](Cc1ccccc1)C(=O)N[C@@H](CO)C(=O)N[C@@H](CCCCN)C(=O)N[C@@H](CC(C)C)C(=O)N[C@@H](CCCNC(=N)N)C(=O)N[C@@H](CCC(=O)O)C(=O)N[C@@H](CCC(N)=O)C(=O)N[C@@H](CC(C)C)C(=O)NCC(=O)N1CCC[C@H]1C(=O)N[C@@H](C)C(=O)N[C@@H](CC(C)C)C(=O)N[C@@H](CCC(=O)O)C(=O)N[C@@H](CC(=O)O)C(=O)N[C@@H](CC(C)C)C(=O)N[C@@H](CCCNC(=N)N)C(=O)N[C@@H](CCC(N)=O)C(=O)NCC(=O)N[C@@H](CC(C)C)C(=O)N[C@@H](CC(C)C)C(N)=O)[C@@H](C)O)[C@@H](C)O)C(C)C [Helical peptide 1/9] (Ac-LKLLDNWDSVTSTFSKLREQLGPALEDLRQGLL-NH2)	stabilized cellular ABCA1 protein to levels comparable with those observed when cells were exposed continuously to cAMP			50	stimulated cholesterol efflux in the absence and presence of CAMP stimulation similar to full-length apoA-I	10	+	31	identical
